According to US20230183237A1, “COMPETITIVE AND NONCOMPETITIVE INHIBITORS OF THE MUSCARINIC ACETYLCHOLINE RECEPTOR M5” (Vanderbilt University, priority 2020, published 2023):

These compounds were tested against T1, hM5 (Homo sapiens, UniProt P08912) (assay: Calcium mobilization concentration-response (IC50 vs EC80 acetylcholine), CHO hM5). Conditions: CELL LINE hM5; calcium mobilization, EC80 acetylcholine addition; read-out: IC50.
T1 construct: expressed in transfected cells
T1 sequence (P08912 1-532): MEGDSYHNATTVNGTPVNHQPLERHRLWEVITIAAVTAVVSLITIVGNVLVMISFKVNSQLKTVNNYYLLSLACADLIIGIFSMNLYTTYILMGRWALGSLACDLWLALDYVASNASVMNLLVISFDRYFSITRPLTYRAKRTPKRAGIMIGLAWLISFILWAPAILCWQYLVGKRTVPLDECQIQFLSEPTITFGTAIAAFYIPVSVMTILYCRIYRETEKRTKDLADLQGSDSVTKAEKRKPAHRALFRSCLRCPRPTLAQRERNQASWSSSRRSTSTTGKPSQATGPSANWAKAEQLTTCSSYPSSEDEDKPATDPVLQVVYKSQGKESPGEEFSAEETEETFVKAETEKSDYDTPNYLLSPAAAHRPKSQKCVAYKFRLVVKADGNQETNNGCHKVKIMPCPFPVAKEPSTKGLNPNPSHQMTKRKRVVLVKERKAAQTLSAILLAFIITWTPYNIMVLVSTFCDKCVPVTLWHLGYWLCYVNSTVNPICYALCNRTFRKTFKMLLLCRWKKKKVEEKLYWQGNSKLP
Format: cell-based
Method in brief: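 IC50 values derive from percent maximal acetylcholine response after an EC80 ACh addition, measured as kinetic calcium fluorescence (static ratio, max−min). Test compounds were added 140 s before agonist. Cells: stable hM5-CHO in HEPES-buffered HBSS with 2.5 mM probenecid, pH 7.4; ≥3 independent triplicate determinations.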
`Cc1cc2ncnn2cc1C1CCN(S(=O)(=O)c2ccc3c(c2F)C(C)CO3)CC1` (centres unmarked) [Compound 104, 6-(1-((4-fluoro-3-methyl-2,3-dihydrobenzofuran-5-yl)sulfonyl)piperidin-4-yl)-7-methyl-[1,2,4]triazolo[1,5-a]pyridine] showed an IC50 of 114 nM. For `O=S(=O)(c1cnc2n1CCC2)N1CC=C(c2cn3ncnc3cc2Cl)CC1` [Compound 207, 7-chloro-6-(1-((6,7-dihydro-5H-pyrrolo[1,2-a]imidazol-3-yl)sulfonyl)-1,2,3,6-tetrahydropyridin-4-yl)-[1,2,4]triazolo[1,5-a]pyridine], the IC50 was 1600 nM. `Cc1cc2ncnn2cc1C1CCN(S(=O)(=O)c2ccc3c(c2)CCO3)C1` (centres unmarked) [Compound 126, 6-(1-((2,3-dihydrobenzofuran-5-yl)sulfonyl)pyrrolidin-3-yl)-7-methyl-[1,2,4]triazolo[1,5-a]pyridine] was tested, and the IC50 was > 10000 nM. For `Cc1cc2ncnn2cc1C1CCN(S(=O)(=O)c2cnn(C)c2C(F)(F)F)CC1` [Compound 162, 7-methyl-6-(1-((1-methyl-5-(trifluoromethyl)-1H-pyrazol-4-yl)sulfonyl)piperidin-4-yl)-[1,2,4]triazolo[1,5-a]pyridine], the IC50 was 96 nM. With `Cc1cc2ncnn2cc1C1CCN(S(=O)(=O)c2cn(C)nc2C(F)(F)F)CC1` [Compound 101, 7-methyl-6-(1-((1-methyl-3-(trifluoromethyl)-1H-pyrazol-4-yl)sulfonyl)piperidin-4-yl)-[1,2,4]triazolo[1,5-a]pyridine] the IC50 was 2100 nM. With `Cc1nc2cc(C)c(C3CCN(S(=O)(=O)c4ccc5ncsc5c4)CC3)cn2n1` [Compound 78, 6-((4-(2,7-dimethyl-[1,2,4]triazolo[1,5-a]pyridin-6-yl)piperidin-1-yl)sulfonyl)benzo[d]thiazole] the IC50 was > 10000 nM. `Cc1cc2ncnn2cc1C1(O)CCN(S(=O)(=O)c2ccc3c(c2)CCO3)CC1` [Compound 310, 1-((2,3-dihydrobenzofuran-5-yl)sulfonyl)-4-(7-methyl-[1,2,4]triazolo[1,5-a]pyridin-6-yl)piperidin-4-ol] was tested, and the IC50 was > 10000 nM. Compound `[2H]C1([2H])Oc2ccc(S(=O)(=O)N3CC=C(c4cn5ncnc5cc4C)CC3)cc2C1([2H])[2H]` [Compound 72, 6-(1-((2,3-dihydrobenzofuran-5-yl-2,2,3,3-d4)sulfonyl)-1,2,3,6-tetrahydropyridin-4-yl)-7-methyl-[1,2,4]triazolo[1,5-a]pyridine] has an IC50 of 699 nM. `O=S(=O)(c1cnc2n1CCCC2)N1CCC(c2cn3ncnc3cc2F)CC1` [Compound 326, 7-fluoro-6-(1-((5,6,7,8-tetrahydroimidazo[1,2-a]pyridin-3-yl)sulfonyl)piperidin-4-yl)-[1,2,4]triazolo[1,5-a]pyridine] gave an IC50 of 99 nM. With `Cn1ccc(-c2cc3ncnn3cc2C2CCN(S(=O)(=O)c3cnn4c3CCCC4)CC2)n1` [Compound 333, 7-(1-methyl-1H-pyrazol-3yl)-6-(1-((4,5,6,7-tetrahydropyrazolo[1,5-a]pyridin-3-yl)sulfonyl)piperidin-4-yl)-[1,2,4]triazolo[1,5-a]pyridine] the IC50 was > 10000 nM. `COc1cc2ncnn2cc1C1CCN(S(=O)(=O)c2cnn(C)c2C)CC1` [Compound 201, 6-(1-((1,5-dimethyl-1H-pyrazol-4-yl)sulfonyl)piperidin-4-yl)-7-methoxy-[1,2,4]triazolo[1,5-a]pyridine] showed an IC50 of 765 nM. In the case of `O=S(=O)(c1c(Cl)nc2sccn12)N1CCC(c2cn3ncnc3cc2Cl)CC1` [Compound 344, 6-chloro-5-((4-(7-chloro-[1,2,4]triazolo[1,5-a]pyridin-6-yl)piperidin-1-yl)sulfonyl)imidazo[2,1-b]thiazole], the IC50 is reported as 18 nM. With `Cc1cc2ncnn2nc1C1CCN(S(=O)(=O)c2cn(C)nc2C)CC1` [Compound 182, 6-(1-((1,3-dimethyl-1H-pyrazol-4-yl)sulfonyl)piperidin-4-yl)-7-methyl-[1,2,4]triazolo[1,5-b]pyridazine] the IC50 was > 10000 nM. `Cc1cc2nccn2nc1C1CCN(S(=O)(=O)c2cnn3c2CCC3)CC1` [Compound 246, 6-(1-((5,6-dihydro-4H-pyrrolo[1,2-b]pyrazol-3-yl)sulfonyl)piperidin-4-yl)-7-methylimidazo[1,2-b]pyridazine] gave an IC50 of 17 nM. In the case of `Cc1cc2ncnn2cc1C1CCN(S(=O)(=O)c2ccc3c(cnn3C)c2)CC1` [Compound 175, 7-methyl-6-(1-((1-methyl-1H-indazol-5-yl)sulfonyl)piperidin-4-yl)-[1,2,4]triazoto[1,5-a]pyridine], the IC50 is reported as > 10000 nM. In the case of `Cc1c(S(=O)(=O)N2CCC(c3cn4ncnc4cc3F)CC2)c(Cl)nn1C` [Compound 329, 6-(1-((3-chloro-1,5-dimethyl-1H-pyrazol-4-yl)sulfonyl)piperidin-4-yl)-7-fluoro-[1,2,4]triazolo[1,5-a]pyridine], the IC50 is reported as 87 nM. With `O=S(=O)(c1ccc2ncsc2c1)N1CCC(c2ccncc2)CC1` [Compound 1, 6-((4-(pyridin-4-yl)piperidin-1-yl)sulfonyl)benzo[d]thiazole] the IC50 was > 10000 nM.

Same assay, conditions: CELL LINE hM5; vs EC80 acetylcholine; read-out: IC50
`[2H]C1([2H])CC(c2cn3ncnc3cc2F)CC([2H])([2H])N1S(=O)(=O)c1cnc2sccn12` [Compound 538, 5-((4-(7-fluoro-[1,2,4]triazolo[1,5-a]pyridin-6-yl)piperidin-1-yl-2,2,6,6-d4)sulfonyl)imidazo[2,1-b]thiazole] gave an IC50 of 125 nM. `CCc1cc2ncnn2cc1C1CCN(S(=O)(=O)c2nncn2C)CC1` [Compound 514, 7-ethyl-6-(1-((4-methyl-4H-1,2,4-triazol-3-yl)sulfonyl)piperidin-4-yl)-[1,2,4]triazolo[1,5-a]pyridine] was tested, and the IC50 was > 10000 nM. With `COC1(c2cn3ncnc3cc2C)CCN(S(=O)(=O)c2cnn(C)c2Cl)CC1` [Compound 415, 6-(1-((5-chloro-1-methyl-1H-pyrazol-4-yl)sulfonyl)-4-methoxypiperidin-4-yl)-7-methyl-[1,2,4]triazolo[1,5-a]pyridine] the IC50 was > 10000 nM. Work on `Cn1cc(S(=O)(=O)N2CCC(c3cn4ncnc4cc3C(F)(F)F)CC2)nn1` [Compound 563, 6-(1-((1-methyl-1H-1,2,3-triazol-4-yl)sulfonyl)piperidin-4-yl)-7-(trifluoromethyl)-[1,2,4]triazolo[1,5-a]pyridine] yielded an IC50 of 234 nM. In the case of `Cc1cc(S(=O)(=O)N2CCC(F)(c3cn4ncnc4cc3C)CC2)sn1` [Compound 561, 5-((4-fluoro-4-(7-methyl-[1,2,4]triazolo[1,5-a]pyridin-6-yl)piperidin-1-yl)sulfonyl)-3-methylisothiazole], the IC50 is reported as 181 nM. `Cc1cc2ncccc2cc1C1CCN(S(=O)(=O)c2cnn3cccnc23)CC1` [Compound 448, 7-methyl-6-(1-(pyrazolo[1,5-a]pyrimidin-3-ylsulfonyl)piperidin-4-yl)quinoline] gave an IC50 of 1990 nM. For `Cc1ncc(S(=O)(=O)N2CCC(c3cnc(C(F)(F)F)cc3C)CC2)s1` [Compound 397, 2-methyl-5-((4-(4-methyl-6-(trifluoromethyl)pyridin-3-yl)piperidin-1-yl)sulfonyl)thiazole], the IC50 was > 10000 nM. `Cc1nnc(S(=O)(=O)N2CCC(c3cn4ncnc4cc3C(F)F)CC2)s1` [Compound 556, 2-((4-(7-(difluoromethyl)-[1,2,4]triazolo[1,5-a]pyridin-6-yl)piperidin-1-yl)sulfonyl)-5-methyl-1,3,4-thiadiazole] gave an IC50 of 342 nM. In the case of `Cn1ncc(S(=O)(=O)N2CCC(F)(c3cn4ncnc4cc3F)CC2)c1C#N` [Compound 503, 4-((4-fluoro-4-(7-fluoro-[1,2,4]triazolo[1,5-a]pyridin-6-yl)piperidin-1-yl)sulfonyl)-1-methyl-1H-pyrazole-5-carbonitrile], the IC50 is reported as 1150 nM. With `Cn1ncc(S(=O)(=O)N2CCC(c3ccc4ncnn4c3)CC2)c1C#N` [Compound 432, 4-((4-([1,2,4]triazolo[1,5-a]pyridin-6-yl)piperidin-1-yl)sulfonyl)-1-methyl-1H-pyrazole-5-carbonitrile] the IC50 was 777 nM. Compound `[2H]C1([2H])CC(c2cn3ncnc3cc2Cl)CC([2H])([2H])N1S(=O)(=O)c1nncn1C` [Compound 580, 7-chloro-6-(1-((4-methyl-4H-1,2,4-triazol-3-yl)sulfonyl)piperidin-4-yl-2,2,6,6-d4)-[1,2,4]triazolo[1,5-a]pyridine] has an IC50 of 98 nM. `Cc1c(C2CCN(S(=O)(=O)c3cnn4ccccc34)CC2)cn2ncnc2c1F` [Compound 545, 8-fluoro-7-methyl-6-(1-(pyrazolo[1,5-a]pyridin-3-ylsulfonyl)piperidin-4-yl)-[1,2,4]triazolo[1,5-a]pyridine] was tested, and the IC50 was 33 nM. With `Cc1cc2ncnn2cc1C1CCN(S(=O)(=O)c2cnn3cccnc23)CC1` [Compound 442, 7-methyl-6-(1-(pyrazolo[1,5-a]pyrimidin-3-ylsulfonyl)piperidin-4-yl)-[1,2,4]triazolo[1,5-a]pyridine] the IC50 was 175 nM. `Cc1cc2nccnc2cc1C1CCN(S(=O)(=O)c2cnn3c2OCCC3)CC1` [Compound 426, 3-((4-(7-methylquinoxalin-6-yl)piperidin-1-yl)sulfonyl)-6,7-dihydro-5H-pyrazolo[5,1-b][1,3]oxazine] gave an IC50 of 26 nM. `Cc1cc2nccnc2cc1C1CCN(S(=O)(=O)c2cnn(C)c2C)CC1` [Compound 425, 6-(1-((1,5-dimethyl-1H-pyrazol-4-yl)sulfonyl)piperidin-4-yl)-7-methylquinoxaline] showed an IC50 of 72 nM.
